Laboratory results: patent US11413278B2, “Compounds and methods for promoting stress resistance” (priority 2015, dated 2022)
Like-named read-outs stand apart in the source and are kept apart here.

Key:
FOXO3 = FOXO3 siRNA knockdown: dependency for H2O2-resistance; assay type: cell-based, human
C. elegans = C. elegans lifespan assays (liquid and plate); assay type: in vivo, Caenorhabditis elegans; details: for ILS at 60 µM / ILS at 66 µM: Caenorhabditis elegans; for O = Life span- extending scores in worms: score scale 0 to 2, 4 to 6 independent trials; for M = Lifespan-extending scores in worms: summary score
[1] = system: phosphorylated γH2A.X and TP53BP1; assay: DNA damage marker analysis (immuno-staining); details: for activity at 10 µM: Homo sapiens, WI-38, 24 h; for P = Potential DNA-damaging / R = Potential DNA damaging: human, 24 h
In short: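 Immunofluorescence read-out for phospho-γH2A.X (Ser-139) and phospho-TP53BP1 (Ser-1778), with DAPI nuclear stain and automated imaging at 10×. WI-38 cells (~8,000 per well) were exposed to small molecules for 24 h after 24 h of culture, with doxorubicin (300 nM, 24 h) or H2O2 (700 μM, 3 h) as positive damage controls.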

WI-38 cells [2] = assay: Long-term effects on cell viability (5 days, ATP; morphology, PI imaging); assay type: cell-based; details: 10 μM; for Luminescence signal for ATP measurement, day-1 Average / Luminescence signal for ATP measurement, day-2 Average / Luminescence signal for ATP measurement, day-3 Average / Luminescence signal for ATP measurement, day-4 Average / Luminescence signal for ATP measurement, day-5 Average / viability at 10 µM: Batch 1; for Luminescence signal for ATP measurement, day-1 Average / Luminescence signal for ATP measurement, day-2 Average / Luminescence signal for ATP measurement, day-3 Average / Luminescence signal for ATP measurement, day-4 Average / Luminescence signal for ATP measurement, day-5 Average: n = 6, day-0 luminescence = 320956 ± 24708; for viability at 10 µM: Homo sapiens, WI-38, 120 h, DMSO ctrl = 100.0%, read-out: ATP luminescence by day-5 normalized; for Luminescence signal for ATP measurement, day-5 Average / viability at 10 µM: day-5; for O = Potential toxicity / Q = Potential toxicity: human, 5 days;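 as to Luminescence signal for ATP measurement, day-2 Average: compounds at 10 µM with ATP read daily over 5 days of treatment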;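 as to Luminescence signal for ATP measurement, day-3 Average: compounds at 10 µM with ATP read daily over 5 days of treatment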;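 as to Luminescence signal for ATP measurement, day-4 Average: compounds at 10 µM with ATP read daily over 5 days of treatment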;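 as to Luminescence signal for ATP measurement, day-5 Average: compounds at 10 µM with ATP read daily over 5 days of treatment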
WI-38 cells [3] = details: for No H2O2 stress treatment, at 10 uM (fold change): normalized ATP measurement; for Assay 1: H2O2-resistant: YES/NO, if NO, possibly due to repeated freezing/thawing of stocks
[4] = in liquid, wild type, with FuDR, 1.0 × 10^9 bacteria/ml, read-out: relative change of mean lifespan vs control, Trial 1
[5] = in liquid, wild type, with FuDR, 2.5 × 10^9 bacteria/ml, read-out: relative change of mean lifespan vs control, Trial 2
[6] = on plate, CF512 temperature-sensitive sterile animals, without FuDR, 2.0 × 10^10 bacteria/ml, read-out: relative change of mean lifespan vs control, Trial 3
[7] = Assay 2(z), 1.0 × 10^9 bacteria/ml, wild type + FuDR (2012 July), read-out: Lifespan assay in liquid
[8] = Assay 3(aa), 2.5 × 10^9 bacteria/ml, wild type + FuDR, read-out: Lifespan assay in liquid
[9] = Assay 4(ab), 2.0 × 10^10 bacteria/ml, CF512 worms, no FuDR, read-out: Lifespan assay on plates
[10] = read-out: Experiment 1, H2A.X-P DNA damage foci staining (no H2O2 stress treatment), at 10 uM
[11] = read-out: Experiment 2, H2A.X-P DNA damage foci staining (no H2O2 stress treatment), at 10 uM
[12] = read-out: Experiment 2, H2A.X-P DNA damage foci staining (under H2O2 stress treatment), at 10 uM
[13] = read-out: Experiment 2, TP53BP1-P DNA damage foci staining (no H2O2 stress treatment), at 10 uM
[14] = read-out: Experiment 2, TP53BP1-P DNA damage foci staining (under H2O2 stress treatment), at 10 uM
[15] = WI-38 cells, 10 μM, (*) = compromised ability to protect cells from H2O2, could be due to stability issue
[16] = asterisks indicate the loss of the ability to protect cells from H2O2 over time
[17] = read-out: Est. ED50, dose response 0.6-20 μM, H2O2-resistance
[18] = on plate, CF512 temperature-sensitive sterile animals, without FuDR, 1.0 × 10^11 bacteria/ml, read-out: relative change of mean lifespan vs control, Trial 4
[19] = Assay 5(ac), 1.0 × 10^11 bacteria/ml, CF512 worms, no FuDR, read-out: Lifespan assay on plates

Row | SMILES | I = FOXO3-dependency for H2O2-resistance (FOXO3; score) | I = FOXO3-dependency for H2O2-resistance (FOXO3; summary score) | ILS at 60 µM (C. elegans; [4]) | ILS at 60 µM (C. elegans; [5]) | ILS at 60 µM (C. elegans; [6]) | ILS at 66 µM (C. elegans; [7]) | ILS at 66 µM (C. elegans; [8]) | ILS at 66 µM (C. elegans; [9]) | O = Life span- extending scores in worms (C. elegans) | M = Lifespan-extending scores in worms (C. elegans) | activity at 10 µM [1, 10] | activity at 10 µM [1, 11] | activity at 10 µM [1, 12] | activity at 10 µM [1, 13] | activity at 10 µM [1, 14] | P = Potential DNA-damaging [1] | R = Potential DNA damaging [1] | Luminescence signal for ATP measurement, day-1 Average (WI-38 cells [2]) | Luminescence signal for ATP measurement, day-2 Average (WI-38 cells [2]) | Luminescence signal for ATP measurement, day-3 Average (WI-38 cells [2]) | further results
1 | CCc1ccc(Oc2nc3ccccn3c(=O)c2/C=C(\C#N)C(=O)NC2CCCCC2)cc1 [Gr-5A] | 0 | 0 | 25.8% | -1.4% | -8.3% | 25.8% | -1.4% | -8.3% | 0 | 0 | 105% | 115% | 127% | 147% | 548% | 0 | 0 | 527000 | 728148 | 837593 | Luminescence signal for ATP measurement, day-4 Average (WI-38 cells [2]): 1074220; Luminescence signal for ATP measurement, day-5 Average (WI-38 cells [2]): 1082445; viability at 10 µM (WI-38 cells [2]): 105%; O = Potential toxicity (WI-38 cells [2]): 0; Q = Potential toxicity (WI-38 cells [2]): 0; H2O2-resistant (WI-38 cells [3]; [15]): YES; No H2O2 stress treatment, at 10 uM (fold change) (WI-38 cells [3]; WI-38 cells): 1.14 fold change; H2O2-resistant (WI-38 cells [3]; [16]): YES; EC50 (WI-38 cells [3]; [17]): 10.2 µM
2 | COc1cccc(/C=C2\CN(C)C/C(=C\c3cccc(OC)c3OC)C2=O)c1OC [O23] | 0 | 0 | 36.2% | 17.4% | 21.6% | 36.2% | 17.4% | 21.6% | 2 (2 for observed in more than 2 trials) | 2 (2 for observed in more than 2 trials) | 79.9% | 326% | 33.4% | 42.4% | 13.2% | 0 | 0 | 329880 | 149226 | 52831 | FOXO3-dependency for H2O2-resistance, at 10 uM (experiment 3) - with & without H2O2 (FOXO3; 10 uM, experiment 3, with & without H2O2): YES; FOXO3-dependency for H2O2-resistance (experiment 3) (FOXO3; 10 uM, with & without H2O2, FOXO3 knockdown in WI-38 cells, YES = resistance reduced by at least 50%, partial = 25% to 50%): YES; ILS at 60 µM (C. elegans; [18]): -0.3%; ILS at 66 µM (C. elegans; [19]): -0.3%; Extension of C. elegans' lifespan (qualitative) (C. elegans; in at least 3 to 4 trials, group range ~10% to ~50%): could extend animal's lifespan; Trials with lifespan extension (C. elegans; positive of total trials): 3 of 4; Luminescence signal for ATP measurement, day-4 Average (WI-38 cells [2]): 53125; Luminescence signal for ATP measurement, day-5 Average (WI-38 cells [2]): 52771; viability at 10 µM (WI-38 cells [2]): 5.1%; O = Potential toxicity (WI-38 cells [2]): 1; Q = Potential toxicity (WI-38 cells [2]): 1; H2O2-resistant (WI-38 cells [3]; [15]): YES (*); No H2O2 stress treatment, at 10 uM (fold change) (WI-38 cells [3]; WI-38 cells): 0.76 fold change; Assay 1: H2O2-resistant (WI-38 cells [3]): YES; H2O2-resistant (WI-38 cells [3]; [16]): YES (*); EC50 (WI-38 cells [3]; derived from dose response curves, 0.6-20 uM, H2O2-resistance of WI-38 cells): 4.9 µM; EC50 (WI-38 cells [3]; [17]): 4.9 µM
3 | CC(C)(C)c1ccc(OCC(=O)Nc2ccc3c4c(cccc24)C(=O)NC3=O)cc1 [O22] | 0 | 0 | -24.5% | -2.3% | -52.8% | -24.5% | -2.3% | -52.8% | 0 | 0 | 101% | 121% | 210% | 154% | 510% | 0 | 0 | 435891 | 566145 | 690403 | Luminescence signal for ATP measurement, day-4 Average (WI-38 cells [2]): 840178; Luminescence signal for ATP measurement, day-5 Average (WI-38 cells [2]): 805461; viability at 10 µM (WI-38 cells [2]): 78.4%; O = Potential toxicity (WI-38 cells [2]): 0; Q = Potential toxicity (WI-38 cells [2]): 0; H2O2-resistant (WI-38 cells [3]; [15]): YES; No H2O2 stress treatment, at 10 uM (fold change) (WI-38 cells [3]; WI-38 cells): 0.96 fold change; Assay 1: H2O2-resistant (WI-38 cells [3]): YES; H2O2-resistant (WI-38 cells [3]; [16]): YES; EC50 (WI-38 cells [3]; [17]): 20 µM
4 | O=C(/C=C/c1cn(-c2ccccc2)nc1-c1cccnc1)c1ccccc1 [Gr-6B] | 0 | 0 | 3% | 0.2% | 20.6% | 3% | 0.2% | 20.6% | 0 | 0 | 93.4% | 112% | 136% | 176% | 272% | 0 | 0 | 467756 | 641901 | 736245 | ILS at 60 µM (C. elegans; [18]): -1.3%; ILS at 66 µM (C. elegans; [19]): -1.3%; Luminescence signal for ATP measurement, day-4 Average (WI-38 cells [2]): 969598; Luminescence signal for ATP measurement, day-5 Average (WI-38 cells [2]): 953988; viability at 10 µM (WI-38 cells [2]): 92.9%; O = Potential toxicity (WI-38 cells [2]): 0; Q = Potential toxicity (WI-38 cells [2]): 0; H2O2-resistant (WI-38 cells [3]; [15]): YES; No H2O2 stress treatment, at 10 uM (fold change) (WI-38 cells [3]; WI-38 cells): 1.10 fold change; Assay 1: H2O2-resistant (WI-38 cells [3]): YES; H2O2-resistant (WI-38 cells [3]; [16]): YES; EC50 (WI-38 cells [3]; [17]): 45.1 µM
